From publication PMC7248105, “Photoinduced monooxygenation involving NAD(P)H-FAD sequential single-electron transfer” (Nature Communications, 2020)

Tests used:
PqsL [1] = target: T1, PqsL (Pseudomonas aeruginosa, UniProt Q9HWJ1, P273A); test: FAD binding affinity (fluorescence spectroscopy)
T1 sequence (Q9HWJ1 1-398 P273A): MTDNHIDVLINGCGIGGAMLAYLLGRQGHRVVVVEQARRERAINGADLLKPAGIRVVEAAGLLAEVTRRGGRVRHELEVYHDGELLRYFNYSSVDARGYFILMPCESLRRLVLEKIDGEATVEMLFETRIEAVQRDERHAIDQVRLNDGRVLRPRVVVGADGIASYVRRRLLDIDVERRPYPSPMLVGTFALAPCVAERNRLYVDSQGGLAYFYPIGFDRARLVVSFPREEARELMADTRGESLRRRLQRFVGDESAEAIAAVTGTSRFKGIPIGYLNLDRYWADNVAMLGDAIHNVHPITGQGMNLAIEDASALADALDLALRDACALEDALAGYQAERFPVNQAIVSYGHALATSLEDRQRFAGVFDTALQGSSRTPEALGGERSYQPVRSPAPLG

PqsL [2] = target: T2, PqsL (Pseudomonas aeruginosa, UniProt Q9HWJ1); test: FAD fluorescence polarization; X-ray crystal structure; assay type: binding
T2 construct: final models contain residues 3–370

PqsL-Q = target: T3, PqsL-Q (Pseudomonas aeruginosa, UniProt Q9HWJ1, C105G/G45R/I43R/R41Y); test: as above; assay type: binding
T3 construct: final models contain residues 3–370
T3 sequence (Q9HWJ1 1-398 R41Y/I43R/G45R/C105G): T1 sequence (Q9HWJ1 1-398 P273A)

[3] = system: NC(=O)C1=CN([C@@H]2O[C@H](COP(=O)(O)OP(=O)(O)OC[C@H]3O[C@@H](n4cnc5c(N)ncnc54)[C@H](O)[C@@H]3O)[C@@H](O)[C@H]2O)C=CC1; test: purified protein; details: FAD
[4] = system: NC(=O)C1=CN([C@@H]2O[C@H](COP(=O)(O)OP(=O)(O)OC[C@H]3O[C@@H](n4cnc5c(N)ncnc54)[C@H](OP(=O)(O)O)[C@@H]3O)[C@@H](O)[C@H]2O)C=CC1; test: purified protein; details: FAD
PqsL [5] = target: T2, PqsL; test: X-ray crystal structure with FAD and 2-ABA; KD by fluorescence spectroscopy; assay type: binding
[6] = target: the molecule itself; test: SEC; analytical gel filtration, Superdex 200 Increase 10/300 GL, 20 mM tris-HCl pH 8.5 without NaCl, 12 °C, calibrated with Bio-Rad standard

`Cc1cc2nc3c(=O)[nH]c(=O)nc-3n(C[C@H](O)[C@H](O)[C@H](O)COP(=O)(O)OP(=O)(O)OC[C@H]3O[C@@H](n4cnc5c(N)ncnc54)[C@H](O)[C@@H]3O)c2cc1C` [FAD] gave a Kd (PqsL [1]) of 64 µM, a Kd (PqsL [2]) of 250 ± 29.8 nM and a Kd (PqsL-Q) of 37.5 ± 6.7 nM.

With PqsL (Pseudomonas aeruginosa PAO1) the Km [3] was 310.9 ± 21.6 µM and the Km [4] was 157.5 ± 18.9 µM.

Molecule `Nc1ccccc1C(=O)CC(=O)O` [2-ABA, 2-aminobenzoylacetate] has a Kd (PqsL [5]) of 38.4 ± 3.98 µM.

B1: PqsL (flavoprotein monooxygenase, wild type) (enzyme, Pseudomonas aeruginosa)
chain: T1 sequence (Q9HWJ1 1-398 P273A)
notes: PqsL, FAD-dependent monooxygenase of alkyl quinolone N-oxide biosynthesis, Pseudomonas aeruginosa; the crystal models hold residues 3-370; One protomer is written; also called Wild-type PqsL; FPMO PqsL; source: E. coli LMG194 (pHERD30T), purified (Ni-NTA, Resource Q anion exchange)
With B1 the “stoichiometry N” value [6] was 2.
